# How the values were obtained:
# [1] = target: T1, TYK2-JH2 (aa 575-869, in-house) protein (Homo sapiens, UniProt P29597); assay: TYK2-JH2 biochemical assay (HTRF probe displacement); type: binding; conditions: Biochemical assay; read-out: TYK2-JH2 IC50
# T1 construct: TYK2-JH2 (aa 575-869, in-house) protein; made in house
# Summary of the method: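 Recombinant TYK2-JH2 (0.2 nM) was pre-incubated 0.5 h at room temperature with compounds (10 doses, 5-fold dilution; 500× DMSO stocks from 500 uM) in 20 mM HEPES pH 7.5, 10 mM MgCl2, 0.005% BSA, 2 mM DTT, 0.015% Brij-35. Probe displacement was read by HTRF (ex337, em620/665 nm); IC50 from four-parameter logistic fit.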
# [2] = tested on: pSTAT5/GM-CSF; assay: pSTAT5/GM-CSF cellular assay (JAK2 selectivity); type: cell-based; conditions: for Selectivity fold (TYK2/JAK2): pSTAT5/GM-CSF IC50 over pSTAT4/IL-12 IC50
# [3] = tested on: JAK2, TYK2/p-STAT4 (Tyr693) activated by IL-12 in NK-92 cell line; assay: IL-12-JAK2, TYK2/p-STAT4 (Tyr693) inhibition IC50 cellular assay; type: cell-based; conditions: for IC50: NK92, Cellular assay, read-out: pSTAT4/IL-12 IC50; for Selectivity fold (TYK2/JAK2): Cellular assay, pSTAT5/GM-CSF IC50 vs pSTAT4/IL-12 IC50
# Summary of the method: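 NK-92 cells were starved overnight without IL-2 and preincubated 1 h at 37° C with compound (8 doses, 10000–0.61 nM, 4-fold, 0.2% DMSO). They were then stimulated with IL-12 (40 ng/ml final) for 30 min. Lysate p-STAT4 (Tyr693) was read by AlphaLISA SureFire; IC50 from four-parameter logistic fit.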
# T1 sequence (P29597 575-869): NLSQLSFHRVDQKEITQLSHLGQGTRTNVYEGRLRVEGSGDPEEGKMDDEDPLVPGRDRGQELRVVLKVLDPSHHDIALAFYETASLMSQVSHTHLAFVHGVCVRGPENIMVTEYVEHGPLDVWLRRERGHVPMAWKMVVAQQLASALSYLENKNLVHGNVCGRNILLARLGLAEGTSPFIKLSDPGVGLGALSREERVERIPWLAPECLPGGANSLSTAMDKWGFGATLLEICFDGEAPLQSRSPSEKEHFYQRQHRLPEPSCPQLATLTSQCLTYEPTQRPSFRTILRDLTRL
SMILES,IC50 [1],IC50 [2],IC50 [3],Selectivity fold (TYK2/JAK2) [2],Selectivity fold (TYK2/JAK2) [3]
"CO[C@H](C)COc1cc(Nc2cc(NC(C)=O)ncc2-c2cc(C)n(C)n2)nc(S(C)(=O)=O)c1 [Example N6, (R)-N-(5-(1,5-dimethyl-1H-pyrazol-3-yl)-4-((4-(2-methoxypropoxy)-6-(methylsulfonyl)pyridin-2-yl)amino)pyridin-2-yl)acetamide]",0.039 nM,> 10000 nM,0.274 nM,>36496 fold,–
"COC(C)COc1cc(Nc2cc(NC(C)=O)ncc2-c2ccc(C(C)(C)O)cn2)nc(S(C)(=O)=O)c1 (stereo not drawn) [Example H7, N-(5-(2-hydroxypropan-2-yl)-4′-((4-(2-methoxypropoxy)-6-(methylsulfonyl)pyridin-2-yl)amino)-[2,3′-bipyridin]-6′-yl)acetamide]",0.046 nM,> 10000 nM,1.22 nM,–,>8196 fold
"CC(=O)Nc1cc(Nc2cc(OC[C@@H](C)O)cc(S(C)(=O)=O)c2)c(-c2ccn(C)n2)cn1 [Example J57, (R)-N-(4-((3-(2-hydroxypropoxy)-5-(methylsulfonyl)phenyl)amino)-5-(1-methyl-1H-pyrazol-3-yl)pyridin-2-yl)acetamide]",0.045 nM,> 10000 nM,15.3 nM,>653 fold,–
"COCc1ccnc(-c2cnc(NC(C)=O)cc2Nc2cccc(S(C)(=O)=O)n2)c1 [Example B8, N-(4-(methoxymethyl)-4′-((6-(methylsulfonyl)pyridin-2-yl)amino)-[2,3′-bipyridin]-6′-yl)acetamide]",0.047 nM,> 10000 nM,1.68 nM,–,>5952 fold
"CC(=O)Nc1cc(Nc2cccc(S(C)(=O)=O)n2)c(-c2cc(C)n(C)n2)cn1 [Example N1, N-(5-(1,5-dimethyl-1H-pyrazol-3-yl)-4-((6-(methylsulfonyl)pyridin-2-yl)amino)pyridin-2-yl)acetamide]",0.077 nM,2130 nM,0.247 nM,8635 fold,–
"CC[C@H](C)Oc1cc(Nc2cc(NC(C)=O)ncc2-c2ccn(C)n2)nc(S(C)(=O)=O)c1 [Example J60, (S)-N-(4-((4-(sec-butoxy)-6-(methylsulfonyl)pyridin-2-yl)amino)-5-(1-methyl-1H-pyrazol-3-yl)pyridin-2-yl)acetamide]",0.021 nM,> 10000 nM,0.797 nM,>12547 fold,–
"CC(=O)Nc1cc(Nc2cc(Cl)cc(S(C)(=O)=O)c2)c(-c2ccn(C)n2)cn1 [Example J31, N-(4-((3-chloro-5-(methylsulfonyl)phenyl)amino)-5-(1-methyl-1H-pyrazol-3-yl)pyridin-2-yl)acetamide]",0.076 nM,> 10000 nM,15 nM,>668 fold,–
"COCCOc1ccc(-c2cnc(NC(C)=O)cc2Nc2cccc(S(C)(=O)=O)c2)nc1 [Example D2, N-(5-(2-methoxyethoxy)-4′-((3-(methylsulfonyl)phenyl)amino)-[2,3′-bipyridin]-6′-yl)acetamide]",0.038 nM,> 10000 nM,15.6 nM,–,>641 fold
"CC(=O)Nc1cc(Nc2cc(C)cc(S(C)(=O)=O)n2)c(-c2ccc(O[C@H]3CCOC3)cn2)cn1 [Example B21, (S)-N-(4′-((4-methyl-6-(methylsulfonyl)pyridin-2-yl)amino)-5-((tetrahydrofuran-3-yl)oxy)-[2,3′-bipyridin]-6′-yl)acetamide]",0.047 nM,2490 nM,0.443 nM,–,5620 fold
"CC(=O)Nc1cc(Nc2cccc(S(C)(=O)=O)n2)c(C2=NC(C)(C)CS2)cn1 [Example R1, N-(5-(4,4-dimethyl-4,5-dihydrothiazol-2-yl)-4-((6-(methylsulfonyl)pyridin-2-yl)amino)pyridin-2-yl)acetamide]",0.041 nM,> 10000 nM,2.18 nM,>4587 fold,–
"CC(=O)Nc1cc(Nc2cc(C(F)(F)F)cc(S(C)(=O)=O)c2)c(-c2ccc(C(C)(C)O)cn2)cn1 [Example H3, N-(5-(2-hydroxypropan-2-yl)-4′-((3-(methylsulfonyl)-5-(trifluoromethyl)phenyl)amino)-[2,3′-bipyridin]-6′-yl)acetamide]",0.048 nM,7180 nM,8.52 nM,–,>843 fold

# More lines, main results first:
IC50 [1],IC50 [2],IC50 [3],SMILES,Selectivity fold (TYK2/JAK2) [2],Selectivity fold (TYK2/JAK2) [3]
0.024 nM,> 10000 nM,1.43 nM,"CCOc1cc(Nc2cc(NC(C)=O)ncc2-c2cc(C)n(C)n2)nc(S(C)(=O)=O)c1 [Example N7, N-(5-(1,5-dimethyl-1H-pyrazol-3-yl)-4-((4-ethoxy-6-(methylsulfonyl)pyridin-2-yl)amino)pyridin-2-yl)acetamide]",>6993 fold,–
0.019 nM,> 10000 nM,2.53 nM,"CC(=O)Nc1cc(Nc2cccc(S(N)(=O)=O)n2)c(-c2ccccn2)cn1 [Example B4, N-(4′-((6-sulfamoylpyridin-2-yl)amino)-[2,3′-bipyridin]-6′-yl)acetamide]",–,>3952 fold
0.032 nM,1550 nM,0.189 nM,"CCn1ccc(-c2cnc(NC(C)=O)cc2Nc2cccc(S(C)(=O)=O)n2)n1 [Example M5, N-(5-(1-ethyl-1H-pyrazol-3-yl)-4-((6-(methylsulfonyl)pyridin-2-yl)amino)pyridin-2-yl)acetamide]",8206 fold,–
0.036 nM,> 10000 nM,8.13 nM,"COCCOc1cc(Nc2cc(NC(C)=O)ncc2-c2ccn(C)n2)cc(S(C)(=O)=O)c1 [Example J35, N-(4-((3-(2-methoxyethoxy)-5-(methylsulfonyl)phenyl)amino)-5-(1-methyl-1H-pyrazol-3-yl)pyridin-2-yl)acetamide]",>1230 fold,–
0.028 nM,> 10000 nM,0.45 nM,"CC(=O)Nc1cc(Nc2cc(OC(C)C)cc(S(C)(=O)=O)n2)c(-c2cc3n(n2)CCOC3)cn1 [Example Q6, N-(5-(6,7-dihydro-4H-pyrazolo[5,1-c][1,4]oxazin-2-yl)-4-((4-isopropoxy-6-(methylsulfonyl)pyridin-2-yl)amino)pyridin-2-yl)acetamide]",>22222 fold,–
0.031 nM,3750 nM,1.08 nM,"CC(=O)Nc1cc(Nc2cc(OC(C)C)cc(S(C)(=O)=O)n2)c(-c2ccn(C(C)C)n2)cn1 [Example M23, N-(4-((4-isopropoxy-6-(methylsulfonyl)pyridin-2-yl)amino)-5-(1-isopropyl-1H-pyrazol-3-yl)pyridin-2-yl)acetamide]",3471 fold,–
0.027 nM,> 10000 nM,0.648 nM,"CC(=O)Nc1cc(Nc2cc(OC(C)C)cc(S(C)(=O)=O)n2)c(-c2ccn([C@H]3CCOC3)n2)cn1 [Example M33, (S)-N-(4-((4-isopropoxy-6-(methylsulfonyl)pyridin-2-yl)amino)-5-(1-(tetrahydrofuran-3-yl)-1H-pyrazol-3-yl)pyridin-2-yl)acetamide]",>15432 fold,–

# — patent US20240043435A1, “TYK-2 INHIBITOR” (BEIGENE, LTD., priority 2020, published 2024)
